According to US9409952B2, “Peptide-compound cyclization method” (Chugai Seiyaku Kabushiki Kaisha, priority 2011, dated 2016):
Starred links: 1 amine or outer side, 2 acyl side, 3 side chain; linkers in the order of their positions; H or OH if unused. Positions of bridges follow the written chain, without caps; N, C: chain ends. Non-standard residues stand in square brackets, D forms with d. Residues, ends and D or L forms follow the SMILES beside them. *: point of attachment. NMeF = CN[C@@H](Cc1ccccc1)C(=O)O; NMeGABA = CN(CCCC(=O)[*:2])[*:1]; NMeβAla = CN(CCC(=O)[*:2])[*:1]; NMeL = CN[C@@H](CC(C)C)C(=O)O; NMeV = CN[C@H](C(=O)O)C(C)C; NMeA = CN[C@@H](C)C(=O)O; Piperidide = C1CCN(*)CC1; dNMeA = CN[C@H](C)C(=O)O; Sar = CNCC(=O)O

What was measured:
[1] = PAMPA (parallel artificial membrane permeability assay); assay type: in vitro ADME; conditions: PAMPA; membrane permeation rate (Pe); 50 mM MOPSO buffer pH 6.5 with 5.0% glycocholic acid, 37° C., 18 hours; read-out: iPAMPA Pe
How it was run: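 Artificial membrane was 10% (w/v) egg lecithin plus 0.5% (w/v) cholesterol in dodecane on a PVDF filter. A 10 mM DMSO stock was added at 0.5% (v/v) to donor buffer (50 mM MOPSO, pH 6.5, 5.0% glycocholic acid). After 18 h at 37 °C, LC/MS or LC/UV gave donor and acceptor levels for Pe.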

[2] = Metabolic stability in human hepatic microsome; assay type: in vitro ADME; conditions: microsomes, pH 7.4; human hepatic microsome, NADPH(+); read-out: CL NADPH(+)

Compound | Papp at 18 hours, 50 µM [1] | microsomal CLint at 1 uM [2]
CC(C)C[C@@H]1NC(=O)[C@H](CC(C)C)N(C)C(=O)CNC(=O)[C@H](C(C)C)N(C)C(=O)[C@H](C)N(C)C(=O)[C@H]([C@@H](C)O)NC(=O)[C@H](C)N(C)C(=O)CCCN(C)C(=O)C[C@@H](C(=O)N(C)[C@@H](Cc2ccccc2)C(=O)N[C@@H](C)C(=O)N2CCCCC2)NC(=O)[C@H](Cc2ccccc2)NC(=O)[C@H](CC(C)C)N(C)C1=O [DP-365] ([NMeGABA][NMeA]T[NMeA][NMeV]G[NMeL]L[NMeL]FD[NMeF]A-Piperidide; lactam N-11) | 20 ×10⁻⁶ cm/s | 35 µL/min/mg
CC(C)C[C@H]1C(=O)N[C@@H](C)C(=O)N(C)[C@@H](Cc2ccccc2)C(=O)N(C)[C@@H](C(C)C)C(=O)N[C@@H](C)C(=O)N(C)[C@@H](C)C(=O)N[C@H](C(=O)N(C)[C@@H](Cc2ccccc2)C(=O)N[C@@H](C)C(=O)N2CCCCC2)CC(=O)N(C)[C@@H](C)C(=O)N(C)[C@@H](Cc2ccccc2)C(=O)N[C@@H]([C@@H](C)O)C(=O)N(C)[C@@H](C)C(=O)N1C [DP-367] ([NMeA][NMeF]T[NMeA][NMeL]A[NMeF][NMeV]A[NMeA]D[NMeF]A-Piperidide; lactam N-11) | 12 ×10⁻⁶ cm/s | 17 µL/min/mg
CC(C)C[C@H]1C(=O)N(C)[C@@H](C)C(=O)N[C@@H](C)C(=O)N(C)[C@@H](C)C(=O)N(C)[C@@H](Cc2ccccc2)C(=O)N(C)[C@@H](C)C(=O)N[C@@H]([C@@H](C)O)C(=O)N(C)[C@@H](C)C(=O)N(C)[C@@H](C)C(=O)N[C@H](C(=O)N(C)[C@@H](Cc2ccccc2)C(=O)N[C@@H](C)C(=O)N2CCCCC2)CC(=O)N(C)[C@@H](C)C(=O)N1C [DP-368] ([NMeA][NMeL][NMeA]A[NMeA][NMeF][NMeA]T[NMeA][NMeA]D[NMeF]A-Piperidide; lactam N-11) | 1.6 ×10⁻⁶ cm/s | 6 µL/min/mg
CC(C)C[C@H]1C(=O)N[C@@H]([C@@H](C)O)C(=O)N(C)[C@@H](C)C(=O)N[C@H](C(=O)N(C)[C@@H](Cc2ccccc2)C(=O)N[C@@H](C)C(=O)N2CCCCC2)CC(=O)N(C)CCC(=O)N(C)[C@@H](C(C)C)C(=O)N(C)[C@@H](Cc2ccccc2)C(=O)N(C)[C@@H](Cc2ccccc2)C(=O)N[C@@H](C)C(=O)N(C)[C@@H](C)C(=O)N1C [DP-370] ([NMeβAla][NMeV][NMeF][NMeF]A[NMeA][NMeL]T[NMeA]D[NMeF]A-Piperidide; lactam N-10) | 25 ×10⁻⁶ cm/s | 36 µL/min/mg
CC[C@H](C)[C@@H]1NC(=O)CN(C)C(=O)[C@H](Cc2ccccc2)N(C)C(=O)[C@H](C)N(C)C(=O)[C@H]([C@@H](C)O)NC(=O)[C@H](CC(C)C)N(C)C(=O)[C@@H](C)N(C)C(=O)C[C@@H](C(=O)N(C)[C@@H](Cc2ccccc2)C(=O)N[C@@H](C)C(=O)N2CCCCC2)NC(=O)[C@H](C(C)C)N(C)C(=O)[C@H](CC(C)C)N(C)C1=O [DP-371] ([dNMeA][NMeL]T[NMeA][NMeF][Sar]I[NMeL][NMeV]D[NMeF]A-Piperidide; lactam N-10) | 34 ×10⁻⁶ cm/s | 31 µL/min/mg
CC(C)C[C@H]1C(=O)N(C)[C@@H](C(C)C)C(=O)N[C@@H](Cc2ccccc2)C(=O)N[C@H](C(=O)N(C)[C@@H](Cc2ccccc2)C(=O)N[C@@H](C)C(=O)N2CCCCC2)CC(=O)N(C)CCCC(=O)N[C@@H](C(C)C)C(=O)N(C)[C@@H](CC(C)C)C(=O)N[C@@H]([C@@H](C)O)C(=O)N(C)[C@@H](Cc2ccccc2)C(=O)NCC(=O)N1C [DP-372] ([NMeGABA]V[NMeL]T[NMeF]G[NMeL][NMeV]FD[NMeF]A-Piperidide; lactam N-10) | 42 ×10⁻⁶ cm/s | 78 µL/min/mg
CC[C@H](C)[C@@H]1NC(=O)CN(C)C(=O)[C@H](Cc2ccccc2)N(C)C(=O)[C@H]([C@@H](C)O)NC(=O)[C@H](CC(C)C)N(C)C(=O)[C@H](C)N(C)C(=O)CCCN(C)C(=O)C[C@@H](C(=O)N(C)[C@@H](Cc2ccccc2)C(=O)N[C@@H](C)C(=O)N2CCCCC2)NC(=O)[C@H](C(C)C)N(C)C(=O)[C@H](CC(C)C)N(C)C1=O [DP-374] ([NMeGABA][NMeA][NMeL]T[NMeF][Sar]I[NMeL][NMeV]D[NMeF]A-Piperidide; lactam N-10) | 24 ×10⁻⁶ cm/s | 53 µL/min/mg
CC(C)C[C@H]1C(=O)N[C@@H](Cc2ccccc2)C(=O)N(C)[C@@H](C(C)C)C(=O)N(C)[C@@H](C)C(=O)N(C)[C@@H](Cc2ccccc2)C(=O)N[C@@H]([C@@H](C)O)C(=O)NCC(=O)N[C@H](C(=O)N(C)[C@@H](Cc2ccccc2)C(=O)N[C@@H](C)C(=O)N2CCCCC2)CC(=O)N(C)[C@@H](C)C(=O)N[C@@H](C)C(=O)N1C [DP-375] ([NMeA]A[NMeL]F[NMeV][NMeA][NMeF]TGD[NMeF]A-Piperidide; lactam N-10) | 19 ×10⁻⁶ cm/s | 39 µL/min/mg
CC(C)C[C@H]1C(=O)N(C)[C@@H](C)C(=O)N[C@H](C(=O)N(C)[C@@H](Cc2ccccc2)C(=O)N[C@@H](C)C(=O)N2CCCCC2)CC(=O)N(C)[C@@H](C)C(=O)N(C)[C@@H](C)C(=O)N(C)[C@@H](Cc2ccccc2)C(=O)N[C@@H]([C@@H](C)O)C(=O)N(C)[C@@H](C)C(=O)N(C)[C@@H](Cc2ccccc2)C(=O)N[C@@H](C)C(=O)N1C [DP-377] ([NMeA][NMeA][NMeF]T[NMeA][NMeF]A[NMeL][NMeA]D[NMeF]A-Piperidide; lactam N-10) | 23 ×10⁻⁶ cm/s | 70 µL/min/mg
CC(C)C[C@H]1C(=O)NCC(=O)N[C@H](C(=O)N(C)[C@@H](Cc2ccccc2)C(=O)N[C@@H](C)C(=O)N2CCCCC2)CC(=O)N[C@@H](C)C(=O)N[C@@H]([C@@H](C)O)C(=O)N(C)[C@@H](C)C(=O)N(C)[C@@H](Cc2ccccc2)C(=O)N[C@@H](C(C)C)C(=O)N(C)[C@@H](Cc2ccccc2)C(=O)N1C [DP-378] (AT[NMeA][NMeF]V[NMeF][NMeL]GD[NMeF]A-Piperidide; lactam N-9) | 31 ×10⁻⁶ cm/s | 219 µL/min/mg
CC(C)C[C@H]1C(=O)N[C@H](C(=O)N(C)[C@@H](Cc2ccccc2)C(=O)N[C@@H](C)C(=O)N2CCCCC2)CC(=O)N(C)CCC(=O)N[C@@H]([C@@H](C)O)C(=O)N(C)[C@@H](C)C(=O)N(C)[C@@H](CC(C)C)C(=O)N[C@@H](C(C)C)C(=O)N(C)[C@@H](Cc2ccccc2)C(=O)N[C@@H](Cc2ccccc2)C(=O)N1C [DP-379] ([NMeβAla]T[NMeA][NMeL]V[NMeF]F[NMeL]D[NMeF]A-Piperidide; lactam N-9) | 41 ×10⁻⁶ cm/s | 236 µL/min/mg
CC(C)C[C@H]1C(=O)N[C@@H](C(C)C)C(=O)N[C@H](C(=O)N(C)[C@@H](Cc2ccccc2)C(=O)N[C@@H](C)C(=O)N2CCCCC2)CC(=O)N[C@H](C)C(=O)N(C)[C@@H](C)C(=O)N(C)[C@@H](Cc2ccccc2)C(=O)N(C)[C@@H](CC(C)C)C(=O)N[C@@H]([C@@H](C)O)C(=O)N(C)CC(=O)N1C [DP-380] ([dA][NMeA][NMeF][NMeL]T[Sar][NMeL]VD[NMeF]A-Piperidide; lactam N-9) | 17 ×10⁻⁶ cm/s | 58 µL/min/mg
CC(C)C[C@H]1C(=O)N[C@H](C(=O)N(C)[C@@H](Cc2ccccc2)C(=O)N[C@@H](C)C(=O)N2CCCCC2)CC(=O)N(C)[C@H](C)C(=O)N(C)[C@@H](CC(C)C)C(=O)N(C)[C@@H](C)C(=O)N[C@@H]([C@@H](C)O)C(=O)N[C@@H](Cc2ccccc2)C(=O)N(C)[C@@H](Cc2ccccc2)C(=O)N[C@@H](C(C)C)C(=O)N1C [DP-381] ([dNMeA][NMeL][NMeA]TF[NMeF]V[NMeL]D[NMeF]A-Piperidide; lactam N-9) | 45 ×10⁻⁶ cm/s | 84 µL/min/mg
